# Experimental data as given in patent US7651978B2, “Selective herbicides based on a substituted phenylsulphonylaminocarbonyl-triazolinone” (Arysta LifeScience North America, LLC, priority 1998, dated 2010).
# Counter-ions that a name gives are not always drawn.
# What was measured:
# [1] = test system: Agropyron; test: Post-emergence test/greenhouse; assay type: in vivo; details: 60 g ai./ha, after three weeks
# Experimental: (§1) Post-Emergence Test/Greenhouse [table] To produce a suitable preparation of active compound, 1 part by weight of active compound is mixed with the stated amount of solvent, the stated amount of emulsifier is added and the concentrate is diluted with water to the desired concentration. Test plants which have a height of 5-15 cm are sprayed with the preparation of active compound such that the particular amounts of active compound desired are applied per unit area. The concentration of the spray liquor is chosen so that the particular amounts of active compound desired are applied in 500 ml of water/ha. After three weeks, the degree of damage to the plants is assessed in % damage in comparison to the development of the untreated control. The figures denote: • 0%=no effect (like untreated control) • 100%=total destruction
# [2] = test system: Alopecurus; test: Post-emergence test/greenhouse; assay type: in vivo; details: 504 h, after three weeks, read-out: degree of damage, Alopecurus
# Experimental: as §1
# [3] = test system: Avena; test: Post-emergence test/greenhouse; assay type: in vivo; details: after three weeks
# Experimental: as §1
# [4] = test system: Bromus; test: Post-emergence test/greenhouse; assay type: in vivo; details: 60 g ai./ha, after three weeks
# Experimental: as §1
# [5] = test system: Lolium; test: Post-emergence test/greenhouse; assay type: in vivo; details: 60 g ai./ha, after three weeks
# Experimental: as §1
# [6] = test system: Setaria; test: Post-emergence test/greenhouse; assay type: in vivo; details: after three weeks
# Experimental: as §1
# [7] = test system: Veronica; test: Post-emergence test/greenhouse; assay type: in vivo; details: 60 g ai./ha, after three weeks
# Experimental: as §1
# [8] = test system: Wheat; test: Post-emergence test/greenhouse; assay type: in vivo; details: wheat, in vivo, 3 weeks
# Experimental: as §1
# [9] = test system: Avena fatua; test: Post-emergence tests/outdoors (Example C, Canada); assay type: in vivo; details: outdoors
# Experimental: (§2) Post-Emergence Tests/Outdoors In addition to the comparative compounds (B) and (D), the sodium salt of the compound of the formula (I) was tested under outdoor conditions in the main cultivation areas of summer wheat in Canada against economically important weeds. The small-plot experiments were carried out on cultivated land under agricultural use. Areas with particularly extensive weed growth were chosen preferably. The active compounds were applied across the area by the spray method, with an average droplet size. To produce a useful preparation of active compound, the active compounds were formulated as 70 WP (70% w/w water-dispersible powder) and applied with customary amounts of water. Wetting of the plants was improved by addition of a surface-active substance (SAS) in the concentrations recommended by the respective manufacturer. To assess the crop compatibility, from 1 to 8 weeks after the treatment, plant growth inhibitions or […] of the leaf area were assessed in % damage in comparison to the development of the untreated control. At different intervals after the treatment, the herbicidal activity was assessed as % reduction in comparison to the untreated control, based on the weed development. The figures denote: • 0%=no damage of the crops or no herbicidal effect, • 100%=total destruction of the crops or the weeds.
# [10] = test system: Fallopia convolvulus; test: Post-emergence tests/outdoors (Example C, Canada); assay type: in vivo; details: outdoors, 30 g of a.i./ha + SAS (Canplus 411), 70 WP, 5 tests
# Experimental: as §2
# [11] = test system: Setaria viridis; test: Post-emergence tests/outdoors (Example C, Canada); assay type: in vivo; details: outdoors, 30 g of a.i./ha + SAS (Canplus 411), 70 WP, 5 tests
# Experimental: as §2
# [12] = test system: Sinapis arvensis; test: Post-emergence tests/outdoors (Example C, Canada); assay type: in vivo; details: outdoors, 30 g of a.i./ha + SAS (Canplus 411), 70 WP, 5 tests
# Experimental: as §2
# [13] = test system: Thlaspi arvense; test: Post-emergence tests/outdoors (Example C, Canada); assay type: in vivo; details: outdoors, 30 g of a.i./ha + SAS (Canplus 411), 70 WP, 3 tests
# Experimental: as §2
# [14] = test system: wheat; test: Post-emergence tests/outdoors (Example C, Canada), crop damage; assay type: in vivo, summer wheat; details: in vivo
# Experimental: as §2
# [15] = test system: Amaranthus retroflexus; test: Post-emergence tests/outdoors (Example D, Canada and USA); assay type: in vivo; details: outdoors, 28–30 g of a.i./ha + SAS, 70 WP or 70 WG, 60 tests
# Experimental: (§3) Post-Emergence Tests/Outdoors The sodium salt of the compound of the formula (I) was tested under outdoor conditions in the main cultivation areas of summer wheat in Canada and the USA against economically important weeds. The small-plot experiments were carried out on cultivated land under agricultural use, with cultivation and climate conditions which can be considered to be representative for the period of the trial. Areas with particularly extensive weed growth were chosen by way of preference. The active compound was applied across the area by the spray method, with an average droplet size. To produce a useful preparation of active compound, the active compound was formulated as 70 WP or 70 WG (70% w/w water-dispersible powder or granules) and applied with customary amounts of water. Wetting of the plants was improved by addition of a surface-active substance (SAS) in the concentration recommended by the manufacturer. To assess the crop compatibility, from 1 to 8 weeks after the treatment, plant growth inhibitions or […] of the leaf area were assessed in % damage in comparison to the development of the untreated control. At different intervals after the treatment, the herbicidal activity was assessed as % reduction in comparison to the untreated control, based on the weed development. The figures denote: • 0%=no damage of the crops or no herbicidal effect, • 100%=total destruction of the crops or the weeds.
# [16] = test system: Avena fatua; test: as above; assay type: in vivo; details: outdoors, 28–30 g of a.i./ha + SAS, 70 WP or 70 WG, 263 tests
# Experimental: as §3
# [17] = test system: Brassica spp.; test: as above; assay type: in vivo; details: outdoors, 28–30 g of a.i./ha + SAS, 70 WP or 70 WG, 27 tests
# Experimental: as §3
# [18] = test system: Capsella bursa-pastoris; test: as above; assay type: in vivo; details: outdoors, 28–30 g of a.i./ha + SAS, 70 WP or 70 WG, 12 tests
# Experimental: as §3
# [19] = test system: Setaria viridis; test: as above; assay type: in vivo; details: outdoors, 28–30 g of a.i./ha + SAS, 70 WP or 70 WG, 102 tests
# Experimental: as §3
# [20] = test system: Sinapis arvensis; test: as above; assay type: in vivo; details: outdoors, 28–30 g of a.i./ha + SAS, 70 WP or 70 WG, 48 tests
# Experimental: as §3
# [21] = test system: Thlaspi arvense; test: as above; assay type: in vivo; details: outdoors, 28–30 g of a.i./ha + SAS, 70 WP or 70 WG, 45 tests
# Experimental: as §3
structure (smiles),measurement,setting,value
"COc1nn(C(=O)NS(=O)(=O)c2ccccc2OC(F)(F)F)c(=O)n1C [(I)-Na-salt, 2-(2-trifluoromethoxy-phenylsulphonylaminocarbonyl)-4-methyl-5-methoxy-2,4-dihydro-3H-1,2,4-triazol-3-one]","degree of damage, Agropyron",[1],70%
same,pest or weed control at 60 g/ha,[2]; 60 g ai./ha,80%
same,pest or weed control at 125 g/ha,[2]; 125 g ai./ha,90%
same,"degree of damage, Avena",[3]; 60 g ai./ha,70%
same,"degree of damage, Avena",[3]; 125 g ai./ha,90%
same,"degree of damage, Bromus",[4],90%
same,"degree of damage, Lolium",[5],90%
same,"degree of damage, Setaria",[6]; 60 g ai./ha,100%
same,"degree of damage, Setaria",[6]; 125 g ai./ha,95%
same,"degree of damage, Veronica",[7],90%
same,"degree of damage, Wheat",[8],0%
same,"herbicidal effect (%), Avena fatua","[9]; 30 g of a.i./ha + SAS (Canplus 411), 70 WP, 6 tests",88%
same,"activity against Avena fatua compared with comparative compounds (B) and (D), in words",[9]; post-emergence,considerably stronger activity
same,"herbicidal effect (%), Fallopia convolvulus",[10],73%
same,"herbicidal effect (%), Setaria viridis",[11],94%
same,"herbicidal effect (%), Sinapis arvensis",[12],94%
same,"herbicidal effect (%), Thlaspi arvense",[13],93%
same,"crop compatibility compared with comparative compounds (B) and (D), in words",[14],approximately the same compatibility
same,"herbicidal effect (%), Amaranthus retroflexus",[15],90%
same,"herbicidal effect (%), Avena fatua",[16],90%
same,"herbicidal effect (%), Brassica spp.",[17],93%
same,"herbicidal effect (%), Capsella bursa-pastoris",[18],90%
same,"herbicidal effect (%), Setaria viridis",[19],94%
same,"herbicidal effect (%), Sinapis arvensis",[20],98%
same,"herbicidal effect (%), Thlaspi arvense",[21],97%
